Experimental data taken from patent US5162336A, “Tetrahydro-pyrido-indoles as cholecystokinin and gastrin antagonists” (Rhone-Poulenc Rorer Pharmaceuticals Inc., priority 1990, dated 1992).

Molecular target: T1, Gastrin receptor (Cavia porcellus, UniProt H0VZC5)
T1 construct: The fundic mucosa is gently scraped off the submucosa; from tissue; host or cells: gastric glands from fundic mucosa of Hartley guinea pig
T1 sequence (H0VZC5 1-426): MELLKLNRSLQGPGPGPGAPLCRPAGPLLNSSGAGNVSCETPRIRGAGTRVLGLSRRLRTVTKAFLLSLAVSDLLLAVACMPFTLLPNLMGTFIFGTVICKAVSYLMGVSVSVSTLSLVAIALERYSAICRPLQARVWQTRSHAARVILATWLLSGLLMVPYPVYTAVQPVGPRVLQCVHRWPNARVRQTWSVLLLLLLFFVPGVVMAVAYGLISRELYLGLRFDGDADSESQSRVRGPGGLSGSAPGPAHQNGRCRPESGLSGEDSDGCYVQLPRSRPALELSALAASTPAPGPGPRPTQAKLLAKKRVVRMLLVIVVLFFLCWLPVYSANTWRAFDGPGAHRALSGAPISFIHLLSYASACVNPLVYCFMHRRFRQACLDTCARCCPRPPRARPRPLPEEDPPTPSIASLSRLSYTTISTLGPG
Assay: Gastrin receptor binding assay (displacement of 125I-(Leu-15)-Gastrin from guinea pig fundic glands)
Set-up: species or system guinea pig (Hartley Strain)
Settings: guinea pig fundic mucosa glands, 25° C., 30 min, read-out: In vitro Binding Data IC50 Gastrin
How it was run: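 Isolated gastric fundic glands from Hartley guinea pig (collagenase digestion, 2x10^5 glands/ml) incubated 30 min at 25 °C under 95% O2/5% CO2 with tracer ^125I-(Leu-15)-gastrin and compound in triplicate. Bound tracer collected on glass fiber filters and gamma-counted; nonspecific defined with 25 μM (Leu-15)-gastrin stock. IC50 = concentration giving 50% loss of specific binding, from log-concentration plot.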

- IC50: 2000 nM
Structure (SMILES): CC(C)C[C@H](NC(=O)[C@H]1Cc2c([nH]c3ccccc23)CN1C(=O)Nc1cccc2ccccc12)C(=O)N[C@@H](CC(=O)O)C(N)=O [Example 67, N-[(3R)-2-(1-naphthylcarbamoyl)-1,2,3,4-tetrahydro-9H-pyrido[3,4-b]indole-3-carboxyl]-L-leucyl-L-aspartic acid amide]
